target: SMYD2 (Homo sapiens, UniProt Q9NRG4); test: Scintillation Proximity Assay (SPA) for detection of SMYD2 enzymatic inhibition; type: biochemical; set-up: The SMYD2 full length enzyme was produced in-house by expression (with an N-terminal 6× His tag) in E. coli; 6xHis (N); made in house; host or cells: E. coli; conditions: SMYD2 full length enzyme, p53 Peptide substrate 1.0 μM, 3H-SAM 60 nM; read-out: IC50 [mol/l] (SPA Assay)
Description: 1.1 Scintillation Proximity Assay (SPA) for Detection of SMYD2 Enzymatic Inhibition
SMYD2 inhibitory activities of the compounds described in the present invention were quantified using a scintillation proximity assay (SPA) which measures methylation by the enzyme of the synthetic, biotinylated peptide Btn-Ahx-[…]—Amid×TFA (Biosyntan) derived from p53 and referred to from here on as “p53 Peptide”. The SMYD2 full length enzyme was produced in-house by expression (with an N-terminal 6× His tag) in E. coli and purification by affinity chromatography on a Ni-NTA Sepharose column followed by a size exclusion chromatography step on a Superdex 200 16/60 column (GE Healthcare).
In a typical assay 11 different concentrations of each compound (0.1 nM, 0.33 nM, 1.1 nM, 3.8 nM, 13 nM, 44 nM, 0.15 μM, 0.51 μM, 1.7 μM, 5.9 μM and 20 μM) were tested in duplicate within the same microtiter plate. To this end, 100-fold concentrated compound solutions (in DMSO) were previously prepared by serial dilution (1:3.4) of 2 mM stocks in a clear low volume 384-well source microliter plate (Greiner Bio-One), from which 50 nl of compound solutions were transferred into a white low volume test microtiter plate from the same supplier. Subsequently, 2.5 μl SMYD2 in aqueous assay buffer [50 mM Tris/HCl pH 9.0 (AppliChem), 1 mM dithiothreitol (DTT, Sigma), 0.01% (w/v) bovine serum albumine (BSA, Sigma), 0.0022% (v/v) Pluronic (Sigma)] were added to the compounds in the test plate to a final enzyme concentration of —typically—3 nM (this parameter was adjusted depending on the activity of the enzyme lot in order to be within the linear dynamic range of the assay). The samples were then incubated for 15 min at 22° C. to allow pre-equilibration of the putative enzyme-inhibitor complexes before the start of the methylation reaction, which was initiated by the addition of 2.5 μl 2-fold concentrated solution (in assay buffer) of titriated S-Adenosyl-L-Methionine (3H-SAM, Perkin Elmer, final concentration: 60 nM) and p53 Peptide substrate (final concentration: 1.0 μM). The resulting mixture (5 μl final volume) was shortly centrifuged (2 min., 1500 rpm) and incubated at 22° C. during 30 min. Thereupon the reaction was stopped by adding 3 μl of Streptavidin PS SPA imaging beads (Perkin Elmer, final concentration of 3.12 μg/μl) and “cold” SAM (AK Scientific, 25 μM final concentration) for non-specific binding reduction. Plates containing the stopped reaction were sealed with transparent adhesive foil (Perkin Elmer), centrifuged (2 min., 1500 rpm), and further incubated for —at least—1 h at RT (or overnight at 4° C.) in order to allow the SPA signals to develop. Subsequently, the amount of product was evaluated by measuring the energy transfer from the β-particles emitted by the 3H-labeled substrate to the Europium scintillator co-polymerized in the polystyrene matrix of the PS imaging beads, using the standard settings for this purpose of a Viewlux (Perkin-Elmer) CCD plate imaging device (emission filter 613/55 (IFP). The resulting scintillation counts were taken as indicator for the amount of methylated peptide per well. The data were normalised using two sets of control wells (typically 16 each) for high−(=enzyme reaction with DMSO instead of test compound=0% =Minimum inhibition) and low−(=all assay components without enzyme=100% =Maximum inhibition) SMYD2 activity. IC50 values were calculated by fitting the normalized inhibition data to a 4-parameter logistic equation using the “Screener” analysis software from Genedata.

Sequence of SMYD2 (Q9NRG4 whole entry): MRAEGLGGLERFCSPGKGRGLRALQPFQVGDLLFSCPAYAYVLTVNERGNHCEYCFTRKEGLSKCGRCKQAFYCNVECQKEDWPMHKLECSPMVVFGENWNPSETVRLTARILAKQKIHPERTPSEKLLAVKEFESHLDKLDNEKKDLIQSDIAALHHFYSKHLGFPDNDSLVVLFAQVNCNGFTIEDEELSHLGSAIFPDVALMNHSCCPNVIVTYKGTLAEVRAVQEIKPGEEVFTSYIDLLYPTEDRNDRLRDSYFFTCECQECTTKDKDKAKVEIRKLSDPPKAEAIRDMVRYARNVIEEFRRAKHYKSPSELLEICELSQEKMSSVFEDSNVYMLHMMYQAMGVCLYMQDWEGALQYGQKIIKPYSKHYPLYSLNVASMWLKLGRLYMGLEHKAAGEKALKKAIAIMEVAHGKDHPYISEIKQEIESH

Structure (SMILES)	IC50 [µM]
CCN(C(=O)[C@H]1C[C@@H](F)CN1)C1CN(/C(=N\C#N)Nc2cccc(OC(F)F)c2)N=C1c1ccc(Cl)c(Cl)c1 (mixture of isomers) [Example 4, (4R)-N-[1-{N′-Cyano-N-[3-(difluoromethoxy)phenyl]carbamimidoyl}-3-(3,4-dichlorophenyl)-4,5-dihydro-1H-pyrazol-4-yl]-N-ethyl-4-fluoro-D-prolinamide]	0.0852
CC1(C)CN[C@@H](C(=O)NC2CN(/C(=N\C#N)Nc3cccc(OC(F)F)c3)N=C2c2ccc(Cl)c(Cl)c2)C1 (mixture of isomers) [Example 7, N-[1-{N′-Cyano-N-[3-(difluoromethoxy)phenyl]carbamimidoyl}-3-(3,4-dichlorophenyl)-4,5-dihydro-1H-pyrazol-1-yl]-4,4-dimethyl-D-prolinamide]	0.49
CCN(C(=O)[C@H]1C[C@@H](O)CN1)C1CN(/C(=N\C#N)Nc2ccc(F)c(OC(F)F)c2)N=C1c1ccc(Cl)c(Cl)c1 (mixture of isomers) [Example 16, (4R)-N-[1-{N′-Cyano-N-[3-(difluoromethoxy)-4-fluorophenyl]carbamimidoyl}-3-(3,4-dichlorophenyl)-4,5-dihydro-1H-pyrazol-4-yl]-N-ethyl-4-hydroxy-D-prolinamide]	0.111
CCN(C(=O)[C@H]1CCCN1)C1CN(/C(=N\C#N)Nc2cccc(OC(F)(F)F)c2)N=C1c1ccc(Cl)c(Cl)c1 (mixture of isomers) [Example 17, N-[1-{N′-Cyano-N-[3-(trifluoromethoxy)phenyl]carbamimidoyl}-3-(3,4-dichlorophenyl)-4,5-dihydro-1H-pyrazol-4-yl]-N-ethyl-D-prolinamide]	0.116
CCN(C(=O)[C@H]1C[C@@H](O)CN1)C1CN(/C(=N\C#N)Nc2cc(C(F)(F)F)ccc2OC(F)(F)F)N=C1c1ccc(Cl)c(Cl)c1 (mixture of isomers) [Example 29, (4R)-N-[1-{N′-Cyano-N-[2-(trifluoromethoxy)-5-(trifluoromethyl)phenyl]carbamimidoyl}-3-(3,4-dichlorophenyl)-4,5-dihydro-1H-pyrazol-4-yl]-N-ethyl-4-hydroxy-D-prolinamide]	0.221
CCN(C(=O)[C@H]1CCCN1)C1CN(/C(=N\C#N)Nc2cc(C(F)(F)F)ccc2OC(F)(F)F)N=C1c1ccc(Cl)c(Cl)c1 (mixture of isomers) [Example 30, N-[1-{N′-Cyano-N-[2-(trifluoromethoxy)-5-(trifluoromethyl)phenyl]carbamimidoyl}-3-(3,4-dichlorophenyl)-4,5-dihydro-1H-pyrazol-4-yl]-N-ethyl-D-prolinamide]	0.0966
CCN(C(=O)[C@H]1CCCN1)C1CN(/C(=N\C#N)Nc2ccc(F)c(OC)c2)N=C1c1ccc(Cl)c(Cl)c1 (mixture of isomers) [Example 33, N-{1-[N′-Cyano-N-(4-fluoro-3-methoxyphenyl)carbamimidoyl]-3-(3,4-dichlorophenyl)-4,5-dihydro-1H-pyrazol-4-yl}-N-ethyl-D-prolinamide]	0.103

The next molecules have a lower IC50 than those just listed; values first:

IC50 [µM]	Structure (SMILES)
0.0798	CCN(C(=O)[C@H]1C[C@@H](O)CN1)C1CN(/C(=N\C#N)Nc2cccc(OC(F)F)c2F)N=C1c1ccc(Cl)c(Cl)c1 (mixture of isomers) [Example 14, (4R)-N-[1-{N′-Cyano-N-[3-(difluoromethoxy)-2-fluorophenyl]carbamimidoyl}-3-(3,4-dichlorophenyl)-4,5-dihydro-1H-pyrazol-4-yl]-N-ethyl-4-hydroxy-D-prolinamide]
0.0244	CCN(C(=O)[C@H]1CCCN1)C1CN(/C(=N\C#N)Nc2ccc(F)c(OC(F)F)c2)N=C1c1ccc(Cl)c(Cl)c1 (mixture of isomers) [Example 15, N-[1-{N′-Cyano-N-[3-(difluoromethoxy)-4-fluorophenyl]carbamimidoyl}-3-(3,4-dichlorophenyl)-4,5-dihydro-1H-pyrazol-4-yl]-N-ethyl-D-prolinamide]
0.0172	CCN(C(=O)[C@H]1CCCN1)C1CN(/C(=N\C#N)Nc2cc(OC(F)(F)F)ccc2OC)N=C1c1ccc(Cl)c(Cl)c1 (mixture of isomers) [Example 19, N-[1-{N′-Cyano-N-[2-methoxy-5-(trifluoromethoxy)phenyl]carbamimidayl}-3-(3,4-dichlorophenyl)-4,5-dihydro-1H-pyrazol-4-yl]-N-ethyl-D-prolinamide]
0.0224	CCN(C(=O)[C@H]1C[C@@H](O)CN1)C1CN(/C(=N\C#N)Nc2cc(OC(F)(F)F)ccc2OC)N=C1c1ccc(Cl)c(Cl)c1 (mixture of isomers) [Example 20, (4R)-N-[1-{N′-Cyano-N-[2-methoxy-5-(trifluoromethoxy)phenyl]carbamimidayl}-3-(3,4-dichlorophenyl)-4,5-dihydro-1H-pyrazol-4-yl]-N-ethyl-1-hydroxy-D-prolinamide]
0.0505	CCN(C(=O)[C@H]1CCCN1)C1CN(/C(=N\C#N)Nc2cccc(OC(F)(F)F)c2F)N=C1c1ccc(Cl)c(Cl)c1 (mixture of isomers) [Example 21, N-[1-{N′-Cyano-N-[2-fluoro-3-(trifluoromethoxy)phenyl]carbamimidoyl}-3-(3,4-dichlorophenyl)-4,5-dihydro-1H-pyrazol-4-yl]-N-ethyl-D-prolinamide]
0.0506	CCN(C(=O)[C@H]1CCCN1)C1CN(/C(=N\C#N)Nc2ccc(F)c(OC(F)(F)F)c2)N=C1c1ccc(Cl)c(Cl)c1 (mixture of isomers) [Example 22, N-[1-{N′-Cyano-N-[4-fluoro-3-(trifluoromethoxy)phenyl]carbamimidoyl}-3-(3,4-dichlorophenyl)-4,5-dihydro-1H-pyrazol-4-yl]-N-ethyl-D-prolinamide]
0.0432	CCN(C(=O)[C@H]1CCN1)C1CN(/C(=N\C#N)Nc2cc(F)cc(OC(F)(F)F)c2)N=C1c1ccc(Cl)c(Cl)c1 (mixture of isomers) [Example 23, (2R)-N-[1-{N′-Cyano-N-[3-fluoro-5-(trifluoromethoxy)phenyl]carbamimidoyl}-3-(3,4-dichlorophenyl)-4,5-dihydro-1H-pyrazol-4-yl]-N-ethylazetidine-2-carboxamide]
0.0651	CCN(C(=O)[C@H]1CCCN1)C1CN(/C(=N\C#N)Nc2cc(F)cc(OC(F)(F)F)c2)N=C1c1ccc(Cl)c(Cl)c1 (mixture of isomers) [Example 24, N-[1-{N′-Cyano-N-[3-fluoro-5-(trifluoromethoxy)phenyl]carbamimidoyl}-3-(3,4-dichlorophenyl)-4,5-dihydro-1H-pyrazol-4-yl]-N-ethyl-D-prolinamide]
0.0613	CCN(C(=O)[C@H]1CCCN1)C1CN(/C(=N\C#N)Nc2cc(OC(F)(F)F)ccc2F)N=C1c1ccc(Cl)c(Cl)c1 (mixture of isomers) [Example 26, N-[1-{N′-Cyano-N-[2-fluoro-5-(trifluoromethoxy)phenyl]carbamimidoyl}-3-(3,4-dichlorophenyl)-4,5-dihydro-1H-pyrazol-4-yl]-N-ethyl-D-prolinamide]
0.00454	CCN(C(=O)[C@H]1CCCN1)C1CN(/C(=N\C#N)Nc2cc(C(F)(F)F)ccc2OC)N=C1c1ccc(Cl)c(Cl)c1 (mixture of isomers) [Example 27, N-[1-{N′-Cyano-N-[2-methoxy-5-(trifluoromethyl)phenyl]carbamimidoyl}-3-(3,4-dichlorophenyl)-4,5-dihydro-1H-pyrazol-4-yl]-N-ethyl-D-prolinamide]
0.0237	CCN(C(=O)[C@H]1CCCN1)C1CN(/C(=N\C#N)Nc2cccc(CC(F)(F)F)c2)N=C1c1ccc(Cl)c(Cl)c1 (mixture of isomers) [Example 31, N-[1-{N′-Cyano-N-[3-(2,2,2-trifluorelethyl)phenyl]carbamimidayl}-3-(3,4-dichlorophenyl)-4,5-dihydro-1H-pyrazol-4-yl]-N-ethyl-D-prolinamide]
